Reference: patent publication US10023568B2, “Naphthyridine derivatives useful as αvβ6 integrin antagonists” (GlaxoSmithKline Intellectual Property Development Limited, priority 2013, dated 2018)
Converted amounts (≈) assume the structure as drawn.

How the values were obtained:
physchem = details: kinetic from dmso stock
Procedure: The Chemiluminescent nitrogen detection (CLND) kinetic solubility was measured according to N. Bhattachar et. al. J. Pharm. Biomed.

[1] = molecular target: T1, human soluble αvβ6 protein (Homo sapiens, UniProt P06756+P18564); experiment: Fluorescence Polarisation Assay, binding of human soluble αvβ6 protein to an RGD-containing peptide; details: read-out: affinity (pIC50) for the human αvβ6 protein in the Fluorescence Polarisation Assay (converted)
T1 construct: The expressed protein contained amino acid 31-987 of αv followed by a Tev cleavage site; Tev cleavage site (C); 6His tag (C); Prescission protease site (C); FLAG tag (C); made in house; host or cells: baculovirus expression system (pFastBac dual construct)
Source text: Binding of human soluble αvβ6 protein to an RGD-containing Peptide by Fluorescence Polarisation Assay:
The extracellular domains of αv and β6 were co-expressed from a pFastBac dual construct using the baculovirus expression system. […] The protein was secreted into the media on expression; it was purified using diafiltration followed by purification using the His tag followed by the FLAG tag and then size exclusion chromatography. […] A fluorescent binding peptide based on LAPβ3 was synthesised chemically, having the sequence Ac-[…](Cy3B)-NH2. An assay buffer of 25 mM HEPES pH7.4, 150 mM NaCl, 1 mM CHAPS and […] was used. To black low volume 384 well plates were added […] of test compound in 100% DMSO, followed by […] αvβ6 protein. Plates were incubated at room temperature for 15 minutes before addition of […] fluorescent RGD-containing peptide. […] For active antagonists in the assay, data were fitted to a 4 parameter logistic equation for IC50 determinations.

αvβ6 = molecular target: T2, αvβ6 (Homo sapiens, UniProt P06756+P18564); experiment: Cell Adhesion Assay K562-αvβ6 (LAP-b1); type: cell-based; details: K562-αvβ6 cells, ligand LAP-b1, 2 mM MgCl2; read-out: affinity in the cell Adhesion Assays αvβ6 pIC50 (converted)
T2 construct: expressed in transfected cells; host or cells: K562-αvβ6
Procedure: (§1) The following cell lines were used, with ligands in brackets: K562-α5β1 (Fibronectin), K562-αvβ3 (LAP-b1), K562-αvβ5 (Vitronectin), K562-αvβ6 (LAP-b1), K562-αvβ8 (LAP-b1). The divalent cation used to facilitate adhesion was 2 mM MgCl2. Adhesion was quantified by cell labelling with the fluorescent dye BCECF-AM (Life Technologies), where cell suspensions at 6×10^6 cells/mL were incubated with […] of 30 mM BCECF-AM at 37° C. for 10 minutes, before dispensing into the assay plate. At the assay conclusion cells that adhered were lysed using 50 μL/well of 0.5% Triton X-100 in H2O to release fluorescence. Fluorescence intensity was detected using an Envision® plate reader (Perkin Elmer). For active antagonists in the assay, data were fitted to a 4 parameter logistic equation for IC50 determinations.

αvβ3 = molecular target: T3, αvβ3 (Homo sapiens, UniProt P05106+P06756); experiment: Cell Adhesion Assay K562-αvβ3 (LAP-b1); type: cell-based; details: K562-αvβ3 cells, ligand LAP-b1, 2 mM MgCl2; read-out: affinity in the cell Adhesion Assays αvβ3 pIC50 (converted)
T3 construct: expressed in transfected cells; host or cells: K562-αvβ3
Procedure: as §1

αvβ5 = molecular target: T4, αvβ5 (Homo sapiens, UniProt P06756+P18084); experiment: Cell Adhesion Assay K562-αvβ5 (Vitronectin); type: cell-based; details: K562-αvβ5 cells, ligand Vitronectin, 2 mM MgCl2; read-out: affinity in the cell Adhesion Assays αvβ5 pIC50 (converted)
T4 construct: expressed in transfected cells; host or cells: K562-αvβ5
Procedure: as §1

αvβ8 = molecular target: T5, αvβ8 (Homo sapiens, UniProt P06756+P26012); experiment: Cell Adhesion Assay K562-αvβ8 (LAP-b1); type: cell-based; details: K562-αvβ8 cells, ligand LAP-b1, 2 mM MgCl2; read-out: affinity in the cell Adhesion Assays αvβ8 pIC50 (converted)
T5 construct: expressed in transfected cells; host or cells: K562-αvβ8
Procedure: as §1

T1 sequence (P06756 31-987): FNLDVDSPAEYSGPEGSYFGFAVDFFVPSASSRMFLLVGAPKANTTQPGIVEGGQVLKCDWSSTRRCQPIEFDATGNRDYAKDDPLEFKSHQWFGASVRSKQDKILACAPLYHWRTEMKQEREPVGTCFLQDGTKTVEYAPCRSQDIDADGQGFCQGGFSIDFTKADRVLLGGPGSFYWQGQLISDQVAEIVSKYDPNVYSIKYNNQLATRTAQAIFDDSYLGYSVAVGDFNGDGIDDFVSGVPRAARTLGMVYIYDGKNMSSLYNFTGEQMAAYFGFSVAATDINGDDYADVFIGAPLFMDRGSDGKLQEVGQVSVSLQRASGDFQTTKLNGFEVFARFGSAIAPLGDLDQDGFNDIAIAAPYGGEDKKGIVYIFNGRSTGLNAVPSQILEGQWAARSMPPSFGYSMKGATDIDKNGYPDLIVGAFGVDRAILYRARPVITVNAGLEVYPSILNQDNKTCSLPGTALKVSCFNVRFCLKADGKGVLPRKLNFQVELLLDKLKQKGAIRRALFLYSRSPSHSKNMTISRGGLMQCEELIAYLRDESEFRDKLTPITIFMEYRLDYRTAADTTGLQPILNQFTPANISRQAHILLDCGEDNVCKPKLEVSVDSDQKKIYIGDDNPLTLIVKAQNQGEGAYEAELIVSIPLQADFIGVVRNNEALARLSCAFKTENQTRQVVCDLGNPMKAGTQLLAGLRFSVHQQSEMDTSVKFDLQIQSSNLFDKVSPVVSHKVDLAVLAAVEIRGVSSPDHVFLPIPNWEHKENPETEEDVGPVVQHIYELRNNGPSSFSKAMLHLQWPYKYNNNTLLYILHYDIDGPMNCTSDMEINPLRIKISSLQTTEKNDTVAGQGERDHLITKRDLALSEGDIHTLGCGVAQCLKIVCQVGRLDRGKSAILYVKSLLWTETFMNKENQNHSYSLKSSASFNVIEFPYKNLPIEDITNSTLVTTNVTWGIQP
T1 sequence (P18564 21-707): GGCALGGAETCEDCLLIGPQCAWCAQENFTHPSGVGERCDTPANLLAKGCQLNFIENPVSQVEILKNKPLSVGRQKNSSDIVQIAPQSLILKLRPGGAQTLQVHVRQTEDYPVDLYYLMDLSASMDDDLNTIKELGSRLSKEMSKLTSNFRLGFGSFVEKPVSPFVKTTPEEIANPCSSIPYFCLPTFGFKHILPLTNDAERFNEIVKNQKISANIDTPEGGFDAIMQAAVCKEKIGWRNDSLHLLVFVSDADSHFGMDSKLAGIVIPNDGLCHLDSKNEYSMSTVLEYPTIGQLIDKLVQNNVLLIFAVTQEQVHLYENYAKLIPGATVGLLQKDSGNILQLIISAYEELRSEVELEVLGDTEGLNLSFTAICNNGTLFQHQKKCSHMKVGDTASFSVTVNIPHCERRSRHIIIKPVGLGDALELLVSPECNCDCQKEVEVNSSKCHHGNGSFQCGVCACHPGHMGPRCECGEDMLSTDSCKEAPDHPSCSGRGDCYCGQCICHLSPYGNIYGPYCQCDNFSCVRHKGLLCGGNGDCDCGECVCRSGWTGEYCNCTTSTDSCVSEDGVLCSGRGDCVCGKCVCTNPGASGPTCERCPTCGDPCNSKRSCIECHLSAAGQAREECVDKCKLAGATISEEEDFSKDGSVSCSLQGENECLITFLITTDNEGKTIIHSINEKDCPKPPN
T2 sequence (P06756 31-1048): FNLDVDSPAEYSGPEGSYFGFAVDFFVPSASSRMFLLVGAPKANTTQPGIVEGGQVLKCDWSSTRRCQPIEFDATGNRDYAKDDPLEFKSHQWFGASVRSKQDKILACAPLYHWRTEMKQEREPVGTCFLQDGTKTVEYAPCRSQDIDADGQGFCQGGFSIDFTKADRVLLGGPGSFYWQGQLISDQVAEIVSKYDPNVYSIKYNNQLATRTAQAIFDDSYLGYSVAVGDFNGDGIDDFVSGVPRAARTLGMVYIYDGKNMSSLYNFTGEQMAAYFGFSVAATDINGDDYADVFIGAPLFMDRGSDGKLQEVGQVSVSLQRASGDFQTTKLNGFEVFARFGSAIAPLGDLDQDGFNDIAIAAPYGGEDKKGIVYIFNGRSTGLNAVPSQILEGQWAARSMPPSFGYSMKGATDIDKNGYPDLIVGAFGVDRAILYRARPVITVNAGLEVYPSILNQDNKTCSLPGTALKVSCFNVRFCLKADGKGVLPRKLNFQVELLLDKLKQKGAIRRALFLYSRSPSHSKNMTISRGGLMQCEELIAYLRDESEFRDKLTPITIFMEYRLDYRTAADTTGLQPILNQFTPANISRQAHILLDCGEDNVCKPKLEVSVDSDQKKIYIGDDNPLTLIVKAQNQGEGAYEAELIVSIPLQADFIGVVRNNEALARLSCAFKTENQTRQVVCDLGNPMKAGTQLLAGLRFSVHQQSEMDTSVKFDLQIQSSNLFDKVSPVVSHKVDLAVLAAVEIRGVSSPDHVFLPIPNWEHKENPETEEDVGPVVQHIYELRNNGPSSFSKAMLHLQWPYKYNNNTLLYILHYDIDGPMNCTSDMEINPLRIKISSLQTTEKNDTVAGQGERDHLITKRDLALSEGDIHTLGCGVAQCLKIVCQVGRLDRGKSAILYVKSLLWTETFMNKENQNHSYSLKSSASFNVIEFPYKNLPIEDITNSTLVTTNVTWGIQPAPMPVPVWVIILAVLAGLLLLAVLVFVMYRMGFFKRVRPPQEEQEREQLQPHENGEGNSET
T2 sequence (P18564 22-788): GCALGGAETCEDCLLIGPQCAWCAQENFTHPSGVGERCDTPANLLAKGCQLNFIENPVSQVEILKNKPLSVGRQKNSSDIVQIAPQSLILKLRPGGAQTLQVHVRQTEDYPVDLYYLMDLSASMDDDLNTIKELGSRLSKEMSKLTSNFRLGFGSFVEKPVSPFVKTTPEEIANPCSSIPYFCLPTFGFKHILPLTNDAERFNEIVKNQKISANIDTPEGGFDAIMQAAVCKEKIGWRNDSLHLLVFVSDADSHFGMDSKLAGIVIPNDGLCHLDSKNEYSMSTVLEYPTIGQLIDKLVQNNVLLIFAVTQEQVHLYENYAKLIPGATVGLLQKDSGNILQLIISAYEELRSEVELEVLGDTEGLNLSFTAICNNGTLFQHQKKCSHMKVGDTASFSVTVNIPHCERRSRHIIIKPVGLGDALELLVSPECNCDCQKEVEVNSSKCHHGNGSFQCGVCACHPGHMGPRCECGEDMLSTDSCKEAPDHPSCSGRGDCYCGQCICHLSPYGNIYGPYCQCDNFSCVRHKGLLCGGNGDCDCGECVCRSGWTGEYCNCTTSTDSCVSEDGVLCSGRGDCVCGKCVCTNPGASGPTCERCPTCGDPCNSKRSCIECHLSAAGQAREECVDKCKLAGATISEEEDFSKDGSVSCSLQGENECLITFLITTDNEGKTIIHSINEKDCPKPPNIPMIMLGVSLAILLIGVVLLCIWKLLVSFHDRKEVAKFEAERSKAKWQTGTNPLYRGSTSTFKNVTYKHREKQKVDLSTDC
T4 sequence (P06756 31-1048): as the sequence (P06756 31-1048) above
T4 sequence (P18084 24-799): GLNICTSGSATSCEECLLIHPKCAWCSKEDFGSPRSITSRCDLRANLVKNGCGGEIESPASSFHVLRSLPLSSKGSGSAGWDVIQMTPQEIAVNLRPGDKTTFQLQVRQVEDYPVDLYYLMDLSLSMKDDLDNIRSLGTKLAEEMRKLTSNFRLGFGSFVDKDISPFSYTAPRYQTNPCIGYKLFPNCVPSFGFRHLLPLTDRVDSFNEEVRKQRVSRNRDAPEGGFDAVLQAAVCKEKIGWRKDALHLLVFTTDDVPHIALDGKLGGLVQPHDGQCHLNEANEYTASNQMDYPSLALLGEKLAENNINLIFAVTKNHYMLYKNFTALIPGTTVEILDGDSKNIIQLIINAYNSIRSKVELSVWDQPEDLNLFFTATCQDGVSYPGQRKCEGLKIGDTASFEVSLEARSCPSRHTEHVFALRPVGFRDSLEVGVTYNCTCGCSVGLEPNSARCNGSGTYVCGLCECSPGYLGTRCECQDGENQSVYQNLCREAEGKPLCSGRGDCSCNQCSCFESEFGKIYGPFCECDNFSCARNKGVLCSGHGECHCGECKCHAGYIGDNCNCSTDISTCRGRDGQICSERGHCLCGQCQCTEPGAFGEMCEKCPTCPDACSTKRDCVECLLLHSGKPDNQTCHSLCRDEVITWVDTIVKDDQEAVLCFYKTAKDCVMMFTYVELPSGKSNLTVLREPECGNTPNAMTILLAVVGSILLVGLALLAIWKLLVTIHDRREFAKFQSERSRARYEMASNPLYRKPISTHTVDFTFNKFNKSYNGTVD
T5 sequence (P06756 31-1048): as the sequence (P06756 31-1048) above
T5 sequence (P26012 43-769): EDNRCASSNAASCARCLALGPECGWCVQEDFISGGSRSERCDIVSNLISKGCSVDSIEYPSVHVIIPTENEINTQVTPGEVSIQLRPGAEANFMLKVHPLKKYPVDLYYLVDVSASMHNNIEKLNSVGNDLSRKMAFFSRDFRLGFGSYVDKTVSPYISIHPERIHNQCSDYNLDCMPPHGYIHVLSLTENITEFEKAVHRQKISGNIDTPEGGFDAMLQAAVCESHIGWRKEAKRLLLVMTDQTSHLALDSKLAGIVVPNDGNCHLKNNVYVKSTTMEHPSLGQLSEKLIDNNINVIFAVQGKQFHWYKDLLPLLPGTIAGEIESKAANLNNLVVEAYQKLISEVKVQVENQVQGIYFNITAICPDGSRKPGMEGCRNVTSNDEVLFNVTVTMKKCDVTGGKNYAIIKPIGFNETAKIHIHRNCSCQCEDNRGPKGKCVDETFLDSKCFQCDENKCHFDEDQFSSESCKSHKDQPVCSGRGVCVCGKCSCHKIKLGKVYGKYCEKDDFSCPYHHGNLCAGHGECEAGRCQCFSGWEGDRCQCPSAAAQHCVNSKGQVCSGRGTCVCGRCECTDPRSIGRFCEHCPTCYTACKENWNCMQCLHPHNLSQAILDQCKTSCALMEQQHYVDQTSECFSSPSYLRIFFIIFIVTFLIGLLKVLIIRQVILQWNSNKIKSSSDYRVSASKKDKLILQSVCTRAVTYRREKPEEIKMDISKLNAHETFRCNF

Row | solubility kinetic (physchem) | IC50 [1] | IC50 (αvβ6) | IC50 (αvβ3) | IC50 (αvβ5) | IC50 (αvβ8) | SMILES
1 | 276 µM (≈ 138 µg/mL) | 6.31 nM | 7.94 nM | 1000 nM | 126 nM | 20 nM | CCc1cc(C)nn1-c1cccc(C(CC(=O)O)CN2CC[C@@H](CCc3ccc4c(n3)NCCC4)C2)c1 (stereo partly drawn) [Example 3, 3-(3-(5-Ethyl-3-methyl-1H-pyrazol-1-yl)phenyl)-4-((R)-3-(2-(5,6,7,8-tetrahyrdro-1,8-naphthyridin-2-yl)ethyl)pyrrolidin-1-yl)butanoic acid]
2 | 388 µM (≈ 178 µg/mL) | – | – | – | – | – | O=C(O)CC(CN1CC[C@@H](CCc2ccc3c(n2)NCCC3)C1)c1cccc(-n2cccn2)c1 (stereo partly drawn) [Example 4, 3-(3-(1H-Pyrazol-1-yl)phenyl)-4-((R)-3-(2-(5,6,7,8-tetrahydro-1,8-naphthyridin-2-yl)ethyl)pyrrolidin-1-yl)butanoic acid]
3 | 470 µM (≈ 242 µg/mL) | 15.8 nM | 7.94 nM | 794 nM | 251 nM | 39.8 nM | CCc1cc(CC)n(-c2cccc(C(CC(=O)O)CN3CC[C@@H](CCc4ccc5c(n4)NCCC5)C3)c2)n1 (stereo partly drawn) [Example 5, 3-(3-(3,5-Diethyl-1H-pyrazol-1-yl)phenyl)-4-((R)-3-(2-(5,6,7,8-tetrahydro-1,8-naphthyridin-2-yl)ethyl)pyrrolidin-1-yl)butanoic acid]
4 | 437 µM (≈ 221 µg/mL) | 20 nM | 7.94 nM | 1580 nM | 251 nM | 50.1 nM | Cc1nn(-c2cccc(C(CC(=O)O)CN3CC[C@@H](CCc4ccc5c(n4)NCCC5)C3)c2)c(C)c1F (stereo partly drawn) [Example 6, 3-(3-(4-Fluoro-3,5-dimethyl-1H-pyrazol-1-yl)phenyl)-4-((R)-3-(2-(5,6,7,8-tetrahydro-1,8-naphthyridin-2-yl)ethyl)pyrrolidin-1-yl)butanoic acid]
